Test results: patent US11040959B2, “Diprovocims: a new and potent class of TLR agonists” (The Scripps Research Institute, priority 2016, dated 2021)
Like-named read-outs stand apart in the source and are kept apart here.

Assays:
[1] = test system: mouse macrophages; assay: stimulated release of TNF-α from mouse macrophages; assay type: cell-based; settings: for EC50: Macrophage
Excerpt: EC50 values are derived from dose-response curves for the stimulated release of TNF-α from differentiated THP-1 cells or mouse macrophages are shown beneath each appropriate structural formula of Compounds 8-12. Half maximal effective concentration (EC50) refers to the concentration of a drug, antibody or toxicant that induces a response halfway between the baseline and maximum after a specified exposure time. It is commonly used as a measure of a drug's potency.

[2] = test system: differentiated human THP-1 cells; assay: stimulated release of TNF-α from differentiated human THP-1 cells (ELISA, dose-response); assay type: cell-based; settings: for EC50: Homo sapiens
Method: A screening campaign was conducted with nearly 100,000 compounds [(a) Whitby et al., Acc. Chem. Res. 2012, 45:1698-1709; and (b) Boger et al., Angew. Chem. Int. Ed. 2003, 42:4138-4176], using a newly developed functional assay that measured the stimulated release of TNF-α from treated human THP-1 cells partially differentiated along the macrophage line [unpublished results of the inventors and co-workers]. […] The libraries screened in the efforts represent a unique compound collection populated by nontraditional compounds [(a) Whitby et al., Acc. Chem. Res. 2012, 45:1698-1709; and (b) Boger et al., Angew. Chem. Int. Ed. 2003, 42:4138-4176] designed to target protein-protein [(a) Shaginian et al., J. Am. Chem. Soc. 2009, 131:5564-5572; and (b) Whitby et al., J. Am. Chem. Soc. 2011, 133:10184-10194] or protein-DNA interactions [Stover et al., J. Am. Chem. Soc. 2009, 131:3342-3348] as well as the major enzyme classes [Otrubova et al., Bioorg. Med. Chem. Lett. 2014, 24:3807-3813].
Hits were confirmed in an ELISA assay for stimulated TNF-α release from human PMA differentiated THP-1 cells and this assay was used for establishing dose-response curves and measured EC50 values.

[3] = Mus musculus, Scheme 1, footnote b, read-out: EC50 TNF-α release from mouse macrophages
[4] = THP-1, Scheme 1, footnote a, read-out: EC50 TNF-α release from human THP-1 cells
[5] = Table 1, TNF-α release from mouse macrophages, read-out: EC50 (nM) (mouse)
[6] = THP-1, Table 1, TNF-α release from human THP-1 cells, read-out: EC50 (nM) (THP-1)

| EC50 [1, 3] [nM] | EC50 [2, 4] [nM] | EC50 [1, 5] [nM] | EC50 [2, 6] [nM] | Compound | also measured |
| --- | --- | --- | --- | --- | --- |
| > 5000 | > 5000 | – | – | O=C(N[C@H]1C[C@@H]1c1ccccc1)[C@H]1CN(C(=O)c2ccc(C(=O)N3C[C@@H](C(=O)N[C@@H]4C[C@H]4c4ccccc4)[C@H](C(=O)N[C@@H]4C[C@H]4c4ccccc4)C3)cc2)C[C@@H]1C(=O)N[C@H]1C[C@@H]1c1ccccc1 [Compound 23, (3R,4R)-1-(4-((3S,4S)-3,4-Bis(((1R,2S)-2-phenyl-cyclopropyl)carbamoyl)-pyrrolidine-1-carbonyl)-benzoyl)—N^3,N^4-bis((1S,2R)-2-phenylcyclopropyl)-pyrrolidine-3,4-dicarboxamide] | – |
| > 5000 | > 5000 | – | – | O=C(N[C@@H]1C[C@H]1c1ccccc1)[C@H]1CN(C(=O)c2ccc(C(=O)N3C[C@@H](C(=O)N[C@@H]4C[C@H]4c4ccccc4)[C@H](C(=O)N[C@@H]4C[C@H]4c4ccccc4)C3)cc2)C[C@@H]1C(=O)N[C@@H]1C[C@H]1c1ccccc1 [Compound 24, (3S,4S)-1-(4-((3R,4R)-3,4-Bis(((1R,2S)-2-phenyl-cyclopropyl)carbamoyl)-pyrrolidine-1-carbonyl)-benzoyl)—N^3,N^4-bis((1R,2S)-2-phenylcyclopropyl)-pyrrolidine-3,4-dicarboxamide] | – |
| > 5000 | 6 | – | – | O=C(N[C@H]1C[C@@H]1c1ccccc1)[C@@H]1CN(C(=O)c2ccc(C(=O)N3C[C@@H](C(=O)N[C@@H]4C[C@H]4c4ccccc4)[C@H](C(=O)N[C@@H]4C[C@H]4c4ccccc4)C3)cc2)C[C@H]1C(=O)N[C@H]1C[C@@H]1c1ccccc1 [Compound 25, (3S,4S)-1-(4-((3S,4S)-3,4-Bis(((1R,2S)-2-phenylcyclopropyl)carbamoyl)-pyrrolidine-1-carbonyl)-benzoyl)—N^3,N^4-bis((1S,2R)-2-phenylcyclopropyl)-pyrrolidine-3,4-dicarboxamide] | – |
| > 5000 | ≥ 5000 | – | – | O=C(N[C@H]1C[C@@H]1c1ccccc1)[C@H]1CN(C(=O)c2ccc(C(=O)N3C[C@H](C(=O)N[C@@H]4C[C@H]4c4ccccc4)[C@@H](C(=O)N[C@@H]4C[C@H]4c4ccccc4)C3)cc2)C[C@@H]1C(=O)N[C@H]1C[C@@H]1c1ccccc1 [Compound 26, (3R,4R)-1-(4-((3R,4R)-3,4-Bis(((1R,2S)-2-phenylcyclopropyl)carbamoyl)-pyrrolidine-1-carbonyl)-benzoyl)—N^3,N^4-bis((1S,2R)-2-phenylcyclopropyl)-pyrrolidine-3,4-dicarboxamide] | – |
| ≥ 5000 | 20 | – | – | O=C(N[C@@H]1C[C@H]1c1ccccc1)[C@H]1CN(C(=O)c2ccc(C(=O)N3C[C@@H](C(=O)N[C@H]4C[C@@H]4c4ccccc4)[C@H](C(=O)N[C@H]4C[C@@H]4c4ccccc4)C3)cc2)C[C@@H]1C(=O)N[C@@H]1C[C@H]1c1ccccc1 [Compound 27, (3S,4S)-1-(4-((3R,4R)-3,4-Bis(((1R,2S)-2-phenyl-cyclopropyl)carbamoyl)-pyrrolidine-1-carbonyl)-benzoyl)—N^3,N^4-bis((1S,2R)-2-phenylcyclopropyl)-pyrrolidine-3,4-dicarboxamide] | – |
| – | – | – | – | O=C(N[C@H]1C[C@@H]1c1ccccc1)[C@@H]1CN(C(=O)c2ccc(C(=O)N3CCCC3)cc2)C[C@H]1C(=O)N[C@H]1C[C@@H]1c1ccccc1 [Compound 30, (3S,4S)—N^3,N^4-Bis((S, 2R)-2-phenyl-cyclopropyl)-1-(4-(pyrrolidine-1-carbonyl)benzoyl)-pyrrolidine-3,4-dicarboxamide] | fold less active than 29 ([1]; printed as in mouse macrophages): 10 fold; EC50 ([2]; THP-1, running text, read-out: EC50, stimulated release of TNF-α from differentiated human THP-1 cells): 2000 nM; fold less active/potent than diprovocim-1 (3) ([2]; human THP-1 cells): 20,000 fold |
| – | – | > 5000 | > 5000 | O=C(N[C@H]1C[C@@H]1c1ccccc1)C1CN(C(=O)C#CC(=O)N2C[C@@H](C(=O)N[C@H]3C[C@@H]3c3ccccc3)[C@H](C(=O)N[C@H]3C[C@@H]3c3ccccc3)C2)C[C@H]1C(=O)N[C@H]1C[C@@H]1c1ccccc1 (stereo partly drawn) [Compound 35, (3S,3′S,4S,4′S)-1,1′-(But-2-ynedioyl)-bis(N^3,N^4-bis((1S,2R)-2-phenylcyclopropyl)-pyrrolidine-3,4-dicarboxamide)] | – |
| – | – | > 5000 | > 5000 | O=C(N[C@H]1C[C@@H]1c1ccccc1)[C@@H]1CN(C(=O)/C=C/C(=O)N2C[C@@H](C(=O)N[C@H]3C[C@@H]3c3ccccc3)[C@H](C(=O)N[C@H]3C[C@@H]3c3ccccc3)C2)C[C@H]1C(=O)N[C@H]1C[C@@H]1c1ccccc1 [Compound 36, (3S,3′S,4S,4′S)-1,1′-Fumaroyl-bis(N^3,N^4-bis((1S,2R)-2-phenylcyclopropyl)pyrrolidine-3,4-dicarboxamide)] | – |
| – | – | > 5000 | > 5000 | O=C(N[C@H]1C[C@@H]1c1ccccc1)[C@@H]1CN(C(=O)C/C=C/CC(=O)N2C[C@@H](C(=O)N[C@H]3C[C@@H]3c3ccccc3)[C@H](C(=O)N[C@H]3C[C@@H]3c3ccccc3)C2)C[C@H]1C(=O)N[C@H]1C[C@@H]1c1ccccc1 [Compound 37, (3S,3′S,4S,4′S)-1,1′-((E)-Hex-3-enedoyl)bis-(N^3,N^4-bis((1S,2R)-2-phenylcyclopropyl)pyrrolidine-3,4-dicarboxamide)] | – |
| – | – | > 5000 | > 5000 | O=C(N[C@H]1C[C@@H]1c1ccccc1)[C@@H]1CN(C(=O)c2cccc(C(=O)N3C[C@@H](C(=O)N[C@H]4C[C@@H]4c4ccccc4)[C@H](C(=O)N[C@H]4C[C@@H]4c4ccccc4)C3)c2)C[C@H]1C(=O)N[C@H]1C[C@@H]1c1ccccc1 [Compound 38, (3S,3′S,4S,4′S)-1,1′-Isophthaloyl-bis-(N^3,N^4-bis((1S,2R)-2-phenylcyclopropyl)-pyrrolidine-3,4-dicarboxamide)] | – |
| – | – | 2300 | 90 | O=C(N[C@H]1C[C@@H]1c1ccccc1)[C@@H]1CN(C(=O)c2ccc(-c3ccc(C(=O)N4C[C@@H](C(=O)N[C@H]5C[C@@H]5c5ccccc5)[C@H](C(=O)N[C@H]5C[C@@H]5c5ccccc5)C4)cc3)cc2)C[C@H]1C(=O)N[C@H]1C[C@@H]1c1ccccc1 [Compound 39, (3S,3′S,4S,4′S)-1,1′-(4,4′-Biphenyldicarboxoyl)-bis(N^3,N^4-bis((1S,2R)-2-phenylcyclopropyl)-pyrrolidine-3,4-dicarboxamide)] | – |
| – | – | > 5000 | > 5000 | O=C(N[C@H]1C[C@@H]1c1ccccc1)[C@@H]1CN(C(=O)COCC(=O)N2C[C@@H](C(=O)N[C@H]3C[C@@H]3c3ccccc3)[C@H](C(=O)N[C@H]3C[C@@H]3c3ccccc3)C2)C[C@H]1C(=O)N[C@H]1C[C@@H]1c1ccccc1 [Compound 40, (3S,3′S,4S,4′S)-1,1′-(2,2′-Oxybis-(acetyl))bis-(N^3,N^4-bis((1S,2R)-2-phenylcyclopropyl)pyrrolidine-3,4-dicarboxamide)] | – |
| – | – | > 5000 | > 5000 | O=C(N[C@H]1C[C@@H]1c1ccccc1)[C@@H]1CN(C(=O)[C@@H]2CCC[C@H](C(=O)N3C[C@@H](C(=O)N[C@H]4C[C@@H]4c4ccccc4)[C@H](C(=O)N[C@H]4C[C@@H]4c4ccccc4)C3)C2)C[C@H]1C(=O)N[C@H]1C[C@@H]1c1ccccc1 [Compound 41, (3S,3′S,4S,4′S)-1,1′-(cis-1,3-Cyclohexane-dicarbonyl)bis(N^3,N^4-bis((1S,2R)-2-phenyl-cyclopropyl)pyrrolidine-3,4-dicarboxamide)] | – |
| – | – | > 5000 | > 5000 | O=C(N[C@H]1C[C@@H]1c1ccccc1)[C@@H]1CN(C(=O)[C@H]2CC[C@H](C(=O)N3C[C@@H](C(=O)N[C@H]4C[C@@H]4c4ccccc4)[C@H](C(=O)N[C@H]4C[C@@H]4c4ccccc4)C3)CC2)C[C@H]1C(=O)N[C@H]1C[C@@H]1c1ccccc1 [Compound 42, (3S,3′S,4S,4′S)-1,1′-(trans-1,4-Cyclohexane-dicarbonyl)bis(N^3,N^4-bis((1S,2R)-2-phenyl-cyclopropyl)pyrrolidine-3,4-dicarboxamide)] | – |
| – | – | > 5000 | > 5000 | O=C(N[C@H]1C[C@@H]1c1ccccc1)[C@@H]1CN(C(=O)[C@H]2CC[C@@H](C(=O)N3C[C@@H](C(=O)N[C@H]4C[C@@H]4c4ccccc4)[C@H](C(=O)N[C@H]4C[C@@H]4c4ccccc4)C3)CC2)C[C@H]1C(=O)N[C@H]1C[C@@H]1c1ccccc1 [Compound 43, (3S,3′S,4S,4′S)-1,1′-(cis-1,4-Cyclohexane-dicarbonyl)bis(N^3,N^4-bis((1S,2R)-2-phenylcyclopropyl)-pyrrolidine-3,4-dicarboxamide)] | – |
